Measured values: ChEMBL document CHEMBL1201862, “PubChem BioAssay data set” (2004)
Activity calls are given as the source filed them.

Experiments:
Type in all cases: functional
[1] = target: T1, DNA dC->dU-editing enzyme APOBEC-3A (Homo sapiens, UniProt P31941); experiment: Dose Response confirmation of small molecule APOBEC3A DNA Deaminase Inhibitors via a fluorescence-based single-stranded DNA deaminase assay. [Related pubchem assays (depositor defined):AID493011, AID493024]
[2] = target: T1, DNA dC->dU-editing enzyme APOBEC-3A; experiment: SAR analysis of small molecule inhibitors of APOBEC3A DNA Deaminase via a fluorescence-based single-stranded DNA deaminase assay - Set 2.; conditions: read-out: IC50_Mean
[3] = target: T1, DNA dC->dU-editing enzyme APOBEC-3A; experiment: SAR analysis of small molecule inhibitors of APOBEC3A DNA Deaminase via a fluorescence-based single-stranded DNA deaminase assay.; conditions: read-out: IC50_Mean
[4] = target: T2, DNA dC->dU-editing enzyme APOBEC-3G (Homo sapiens, UniProt Q9HC16)
[5] = target: T2, DNA dC->dU-editing enzyme APOBEC-3G; experiment: inhibition of APOBEC3G ssDNA deamination – biochemical, fluorescence, single-stranded DNA substrate, SAR follow-up (AID 602136); conditions: read-out: IC50_Mean
[6] = target: T2, DNA dC->dU-editing enzyme APOBEC-3G; experiment: SAR analysis of small molecule inhibitors of APOBEC3G DNA Deaminase via a fluorescence-based single-stranded DNA deaminase assay - Set 2.; conditions: read-out: IC50_Mean

Measured: IC50

T2 sequence (Q9HC16 whole entry): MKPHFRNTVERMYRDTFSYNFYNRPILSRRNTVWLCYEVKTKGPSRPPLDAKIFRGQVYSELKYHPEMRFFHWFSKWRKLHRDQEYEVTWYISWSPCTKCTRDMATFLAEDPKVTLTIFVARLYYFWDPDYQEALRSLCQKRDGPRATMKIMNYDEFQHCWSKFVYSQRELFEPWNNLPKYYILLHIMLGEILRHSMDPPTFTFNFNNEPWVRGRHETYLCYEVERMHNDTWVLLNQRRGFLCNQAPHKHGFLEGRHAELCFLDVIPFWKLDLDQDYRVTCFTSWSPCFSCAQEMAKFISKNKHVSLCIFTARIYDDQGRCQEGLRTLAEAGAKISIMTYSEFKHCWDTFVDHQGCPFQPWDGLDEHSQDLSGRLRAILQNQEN
T1 sequence (P31941 whole entry): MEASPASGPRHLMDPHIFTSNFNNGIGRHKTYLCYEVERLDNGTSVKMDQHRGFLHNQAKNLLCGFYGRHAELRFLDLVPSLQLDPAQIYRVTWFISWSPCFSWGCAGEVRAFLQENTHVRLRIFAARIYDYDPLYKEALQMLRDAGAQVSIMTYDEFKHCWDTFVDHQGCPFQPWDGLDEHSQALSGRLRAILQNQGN

CCC(=O)Nc1cccc(-c2nnc(SCC(=O)NCc3ccco3)n2C)c1
active: [1] 1070 nM | [2] 4370 nM | [3] 1930 nM | [4] 5360 nM | [5] 1500 nM | [6] 695 nM
